Experimental data published in patent US10882826B2, “Quinolinone or quinazolinone comprising antibiofilm compositions, compounds and methods and uses relating thereto” (University College Cork—National University of Ireland, priority 2015, dated 2021).

Legend:
[1] = tested on: C. albicans strain SC5314 biofilm; experiment: XTT metabolic assay of C. albicans biofilm; assay type: cell-based, Candida albicans; conditions: for XTT result, Mean (MeOH control = 1) / Absorbance at 492 nm, Mean (XTT): C. albicans biofilm; for Absorbance at 492 nm, Mean (XTT): test compound 100 μM, 24 hr, MeOH control 0.647, untreated 0.851; for effectiveness against fungal biofilms formed by Candida albicans (in words): summary statement
Experimental: C. albicans strain SC5314 was sub-cultured from 15% (v/v) glycerol stocks at −80° C. onto Yeast Peptone Dextrose (YPD) medium [1% (w/v) yeast extract, 2% (w/v) peptone and 2% (w/v) dextrose] and incubated at 30° C. overnight.
The test compounds in desiccated form were re-suspended in Methanol to create a 10 mM stock. […]
The ability of some of the compounds detailed in example 1 to disrupt Candida albicans was tested using Confocal Scanning Laser Microscopy and an XTT Metabolic Assay. The XTT assay is a commonly used quantitative method assessing Candida biofilm mass and growth often in response to novel drug therapies.
C. albicans biofilm formation was carried out in 96 well plates by a method of the prior art. Briefly, C. albicans was inoculated into Yeast Nitrogen Base [10% (w/v)] and glucose/maltose [10% (w/v)] and incubated overnight at 30° C. Seeding densities for all subsequent experiments (N=3) were OD600=0.05. Cells were grown in Yeast Nitrogen Base supplemented with 1 M Phosphate buffer and acetyl-D-glucosamine (YNB-NP) along with appropriate volumes of test compound to provide the desired concentration. Cells were cultured in 96 well plates for 1 hr at 37° C. to facilitate yeast attachment. After this incubation, the supernatants were aspirated, the wells washed twice with YNB-NP media, and fresh media with the same concentration of test compound added to the appropriate wells. The plate was incubated for 24 hr at 37° C. The next day, the cultures were aspirated and the wells washed once with YNB-NP media.
C. albicans biofilm quantification was carried out in 96 well plates using a semi-quantitative Tetrazolium salt, 2,3-bis-(2-methoxy-4-nitro-5-sulfophenyl)-2H tetrazolium-5-carboxanilide inner salt (XTT) reduction assay (Hawser, Tunney et al, Antimicrob Agents Chemother. 2004 May; 48(5):1879-81). XTT (0.01 g) was dissolved in sterile water (20 ml) and filter sterilized. 10 μl of Menadione dissolved in Acetone was added to the XTT solution, just before use. The XTT-Menadione Solution (100 μl) was added to each well. The plate was incubated in the dark at 37° C. for up to 2 hr to allow for colour development. The OD492 nm was recorded for each well. Experiments were repeated at least three times, with at least eight technical replicates.
Experiments were first carried out using the test compound at concentration of 100 μM.

[2] = tested on: P. aeruginosa PAO1 pqsA-pqsA-lacZ strain; experiment: Phenazine extraction (phenazine production); assay type: cell-based; conditions: PAO1 pqsA-pqsA-lacZ strain, test compounds 10 μM, 24 hr; methanol control 0.080
Experimental: P. aeruginosa strains, PAO1 and pqsA mutant, containing the chromosomally inserted pqsA-lacZ promoter fusion on plasmid pUC18-mini-Tn7, were sub-cultured from glycerol stocks onto LB agar plates, supplemented with Carbenicillin (200 μg/ml) and X-gal (40 μg/ml), and incubated at 37° C. overnight. Single colonies were inoculated into LB broth (20 ml), supplemented with Carbenicillin (200 μg/ml), and incubated at 37° C., shaking at 180 rpm overnight. For subsequent experiments, the OD600 nm was recorded and a starting OD600 nm of 0.02 was inoculated into fresh LB broth, supplemented with Carbenicillin (200 μg/ml) and incubated at 37° C., shaking at 180 rpm.
P. aeruginosa strains were cultured as described above for 24 hr, with the addition of test compounds (10 μM). Cultures were centrifuged at 4000 rpm for 10 minutes and the cell free supernatant (5 ml) removed. Chloroform (3 ml) was added, and mixed by vortex. After centrifugation at 4000 rpm for 5 mins, the lower aqueous phase was transferred to 0.2 M HCl (2 ml). Samples were mixed by vortex and centrifuged at 4000 rpm for 5 mins to separate the phases. An aliquot of the top phase (1 ml) was removed and spectrophotmetrically analysed at OD570 nm. Phenazine production was calculated using the following formula: OD570 nm×2×17.072 and the units expressed in μg/ml.
The phenazine production levels and Miller units in the PAO1 pqsA-pqsA-lacZ strain are detailed in table 5.
The virulence of compounds B2, C13 and C15 towards P. aeruginosa was assessed using an analogous method.

[3] = tested on: A. fumigatus Af293 biofilm; experiment: A. fumigatus biofilm assay (crystal violet); assay type: cell-based, Aspergillus fumigatus; conditions: for effectiveness against fungal biofilms formed by Aspergillus fumigatus (in words): summary statement
Experimental: A. fumigatus Af293 was routinely grown on Sabouraud dextrose agar (SDA) in 100 ml cell culture flasks at 37° C. for 3-4 days until a lawn of fungal growth was observed.
(§1) A. fumigatus Af293 was grown on SDA in 100 ml cell culture flasks at 37° C. for 3-4 days. Conidia were harvested by flooding the surface of the agar plates with 5 ml PBS (Oxoid) containing 0.025% (v/v) Tween 20 and gently moving the liquid over the surface of the fungal lawn. The conidial suspension was transferred into a 25 ml sterile container and conidia were counted using a Neubauer haemocytometer and light microscope. Conidia were adjusted to the required concentration in RPMI 1640 (Sigma) buffered to pH 7.0 with 0.165 M MOPS immediately prior to biofilm formation analysis.
(§2) To assess biofilm formation, counted A. fumigatus spores (1×10^5) in MOPS buffered RPMI 1640 were inoculated into 24- and 96-well plates and grown overnight in the presence of 100 μM HHQ, PQS and the test compounds. After 24 hrs, the media was removed and the biofilm washed twice with distilled water after which 0.1% crystal violet (CV) was added to each well and allowed to stand for 1 hr at room temperature. The crystal violet was removed and all wells washed in a water bath by inversion. Ethanol was added to each well to solubilise biofilms after which samples were read on a spectrophotometer at Abs595 nm.

[4] = tested on: A. fumigatus CFBRC1 biofilm; experiment: A. fumigatus biofilm assay, clinical source CFBRC1; assay type: cell-based, Aspergillus fumigatus; conditions: biofilm from clinical source CFBRC1
Experimental: as §1, §2
(§3) The above experiments were carried out using biofilms grown from laboratory sources of A. fumigatus. The experiments were repeated to test some compounds against biofilms grown from three different clinical sources of A. fumigatus (CFBRC1, CFBRC2 and CFBRC3. The results are shown in table 8: […]

[5] = tested on: A. fumigatus CFBRC2 biofilm; experiment: A. fumigatus biofilm assay, clinical source CFBRC2; assay type: cell-based, Aspergillus fumigatus; conditions: biofilm from clinical source CFBRC2
Experimental: as §1, §2, §3

[6] = tested on: A. fumigatus CFBRC3 biofilm; experiment: A. fumigatus biofilm assay, clinical source CFBRC3; assay type: cell-based, Aspergillus fumigatus; conditions: biofilm from clinical source CFBRC3
Experimental: as §1, §2, §3

Compound	XTT result, Mean (MeOH control = 1) ([1]; 10 μM)	XTT result, Mean (MeOH control = 1) ([1]; 50 μM)	XTT result, Mean (MeOH control = 1) ([1]; 100 μM)	Absorbance at 492 nm, Mean (XTT) [1]	effectiveness against fungal biofilms formed by Candida albicans (in words) [1]	Phenazine, Mean [2] [µg/mL]	Relative absorbance at 595 nm compared to methanol control, Mean ([3]; A. fumigatus Af293 biofilm, 100 μM, 24 hrs, crystal violet)	effectiveness against fungal biofilms formed by Aspergillus fumigatus (in words) [3]	Relative absorbance compared to MeOH (=1), Mean [4]	Relative absorbance compared to MeOH (=1), Mean [5]	Relative absorbance compared to MeOH (=1), Mean [6]
CCCCCCCc1nc2ccccc2c(=O)n1N [Compound C2]	0.68	0.38	0.25	0.178	effective	0.541	0.37	effective	0.310	0.304	0.292
CCCCCCCc1cc(=O)c2cc(Cl)ccc2[nH]1 [Compound C4]	0.86	0.67	0.58	0.302	effective	0		effective			
CCCCCCCc1cc(=O)c2cccc(Cl)c2[nH]1 [Compound C5]				0.242	effective	0			0.297	0.359	0.483
